This is an account of results in patent publication US11805798B2, “Process for increasing the stability of a composition comprising polyunsaturated omega-3 fatty acids” (Evonik Operations GmbH, priority 2014, dated 2023).

Type in all cases: physicochemical
The nature of data set [1]: Peroxide Value (PV), primary oxidation products, Ph. Eur. 2.5.5; stability on storage. On the procedure: An exemplary procedure for determining the Peroxide Value (PV) of a sample is performed as follows:
Reagents and solution: • 1. Acetic Acid—chloroform solution (7.2 ml Acetic Acid and 4.8 ml Chloroform). • 2. Saturated Potassium Iodide solution. Store in the dark. • 3. Sodium thiosulfate solution, 0.1N. Commercially available • 4. 1% Starch solution. Commercially available. • 5. Distilled or deionized water.
Conduct a blank determination of the reagents • 1. Weigh 2.00 (±0.02) g of sample into a 100 ml glass stoppered Erlenmeyer flask. Record weight to the nearest 0.01 g. • 2. By graduated cylinder, odd 12 ml of the acetic acid chloroform solution. • 3. Swirl the flask until the sample is completely dissolved (careful warming on a hot plate may be necessary). • 4. Using 1 ml Mohr pipette, add 0.2 ml of saturated potassium iodide solution • 5. Stopper the flask and swirl the contents of the flask for exactly one minute. • 6. Immediately add by graduated cylinder, 12 ml of either distilled or deionized water, stopper and stake vigorously to liberate the iodine from the chloroform layer. • 7. Fill the burette with 0.1 N sodium thiosulfate. • 8. If the starting color of the solution is deep red orange, titrate slowly with mixing until the color lightens. If the solution is initially a light amber color, go to step 9. • 9. Using a dispensing device: add 1 ml of starch solution as indicator. • 10. Titrate until the blue gray color disappears in the aqueous (upper layer). • 11. Accurately record the mis of titrant used to two decimal places.
Calculation: • S=titration of sample • B=titration of blank • Peroxide value=(S−B)*N thiosulfate*1000/weight of sample
(§1) Primary oxidation products (hydroperoxides at double bonds) were quantified by determining the Peroxide Value (PV) according to Ph. Eur 2.5.5 (01/2008.20505). Secondary oxidation products (carbonyl compounds) were quantified by determining the Anisidine Value (AV) according to Ph, Eur. 2.5.36 (01/2008:20536).
(§2) About 50 g each of the liquid ethyl esters EPA-OEt and DHA-OEt used in experiments 1 and 2 as well as of the liquid fatty acids EPA and DHA obtained in experiments 1 and 2 were filled into 250 ml Schott Duran bottles with an inner diameter of about 60 mm (filling height about 20 mm). About 50 g each of the solid lysine-salts EPA-Lys and DHA-Lys obtained in experiments 3 and 4 were filled into 250 ml polyethylene wide-neck bottles (55 mm*55 mm*80 mm) (filling height about 60 mm-70 mm).
(§3) All of the bottles were placed together with opened lids in a drying oven with an opened ventilation valve at 50° C. and stored under these conditions for 26 days. Results of the analyses performed subsequently as well as the results obtained for the sodium-salts which were stored at room temperature (cf. experiments 5 and 6) are summarized in the following table (Table 1).

Data set [2] is described as follows: Oligomer content by gel-chromatography (GPC), RI-detector; stability on storage. How it is done:
Oligomeric PUFA constituents as well as their derivatives (collectively referred to as oligomer content) were quantified by gel-chromatographic means (GPC, styroldivinylbenzene-phase with tetrahydrofuran containing trifluoroacetic acid used as eluent). A refractive index (RI) detector was used for detection. Due to the fact that specific response factors of the constituents of the samples wore unknown, proportions were calculated based upon fractional proportions of the total area of chromatograms.
as §2, §3

The nature of data set [3]: Anisidine Value (AV), secondary oxidation products, Ph. Eur. 2.5.36; stability on storage. How it is done:
An exemplary procedure for determining the Anisidine Value (AV) of a sample is performed as follows
The anisidine value is defined as 100 times the optical density measured in a 1 cm cell of a solution containing 1 g of the substance to be examined in 100 ml of a mixture of solvents and reagents according to the following method carry out the operations as rapidly as possible avoiding exposure to actinic light.
Test solution (a); Dissolve 0.500 g of the substance to be examined in trimethylpentane and dilute to 25.0 ml with the same solvent.
Test solution (b): To 5.0 ml of test solution (a) add 1.0 ml of a 2.5 g/t solution of p-anisidine in glacial acetic acid, shake and store protected from light.
Reference solution: To 5.0 ml of trimethylpentane add 1.0 ml of a 2.5 g/l solution of p-anisidine in glacial acetic acid, shake and store protected from light. Measure the absorbance of test solution (a) at the maximum at 350 nm using trimethylpentane as the compensation liquid. Measure the absorbance of test solution (b) at 350 nm exactly 10 min after its preparation, using the reference solution as the compensation liquid. Calculate the anisidine value (AV) from the expression. AV=(25*(1.2*A1−A2)/m • A1=absorbance of test solution (b) at 350 nm, • A2=absorbance of test solution (a) at 350 nm, • m=mass of the substance to be examined in test solution (a), in grams.
as §1, §2, §3

A short description of data set [4]: Appearance after storage at room temperature. The note with it: after storage for 3 months at room temperature; initially faintly beige powder. On the procedure: The homogenous solution obtained was spray dried with a Büchi B190 laboratory-spray drier with an inlet temperature of 140° C. and an outlet temperature of about 80° C. 28.6 g of a faintly beige powder were obtained.
The homogenous solution obtained was spray dried with a Büchi B190 laboratory-spray drier writ an inlet temperature of 140° C. and an outlet temperature of about 80° C. 27.5 g of a faintly beige powder were obtained. […] Oligomer content was determined as 3.4 area-% (gel-chromatography. RI-detector).

The mark [5] stands for this setting: t = 26 days, open bottles exposed to air, drying oven at 50° C.
The mark [6] stands for this setting: after 3 months at room temperature.

Several values for one entry are separate records, joined by “and”; a condition that tells them apart may be missing. Equal entries are not always repeated.

“Docosahexaenoic Acid-L-Lysine Salt [DHA-Lys]”: the “Peroxide Value (PV)” value in data set [1] (t = 0, before storage) was 1.7 mmol/kg; in data set [1] (setting [5]), under 1.0 mmol/kg. In data set [2] (setting [5]), this compound came in with an Oligomer content of 0.9 area-%. Moreover, the “Anisidine Value (AV)” value in data set [3] (t = 0, before storage) is on record as 3.1 A/g; in data set [3] (setting [5]), under 1.0 A/g.
Regarding “Eicosapentaenoic Acid-Sodium Salt [EPA-Na]”, the “Peroxide Value (PV)” value in data set [1] (setting [6]) was 5.0 mmol/kg and 5.0 ** mmol/kg. Further, the Oligomer content in data set [2] (setting [6]) is 2.4 area-% and 2.4 ** area-%. The “Anisidine Value (AV)” value in data set [3] (setting [6]) is 41.1 A/g and 41.1 ** A/g. For the same compound, the Appearance after storage result in data set [4] is “grey-coloured appearance”.
For the compound `CC/C=C\C/C=C\C/C=C\C/C=C\C/C=C\CCCC(=O)O` [EPA-OH, all-cis-5,8,11,14,17-eicosapentaenoic acid], the “Peroxide Value (PV)” value in data set [1] (t = 0, before storage) is recorded as 8.6 mmol/kg; in data set [1] (setting [5]), 14.7 mmol/kg. Further, the Oligomer content in data set [2] (setting [5]) is listed as 20.6 area-%. Further, the “Anisidine Value (AV)” value in data set [3] (t = 0, before storage) is on record as 3.1 A/g; in data set [3] (setting [5]), 424 A/g.
As to `CC/C=C\C/C=C\C/C=C\C/C=C\C/C=C\C/C=C\CCC(=O)OCC` [DHA-OEt, docosahexaenoic acid ethyl ester], the “Peroxide Value (PV)” value in data set [1] (t = 0, before storage) came to 26.1 mmol/kg; in data set [1] (setting [5]), 282.0 mmol/kg. Further, the Oligomer content in data set [2] (t = 0, before storage) is recorded as 0.4 area-%; in data set [2] (setting [5]) it was 32.6 area-%. Besides, the “Anisidine Value (AV)” value in data set [3] (t = 0, before storage) is on record as 16.0 A/g; in data set [3] (setting [5]) it was 1732 A/g.
Regarding “Docosahexaenoic Acid-Sodium Salt [DHA-Na]”, the “Peroxide Value (PV)” value in data set [1] (setting [6]) is 6.9 mmol/kg and 6.9 ** mmol/kg. Besides, the Oligomer content in data set [2] (setting [6]) was 3.4 area-% and 3.4 ** area-%. The “Anisidine Value (AV)” value in data set [3] (setting [6]) is 77.9 A/g and 77.9 ** A/g. Further, in data set [4], the Appearance after storage result is “grey-coloured appearance”.
“Eicosapentaenoic Acid-L-Lysine [EPA-Lys]”: the “Peroxide Value (PV)” value is on record as 1.3 mmol/kg in data set [1] (t = 0, before storage) and under 1.0 mmol/kg in data set [1] (setting [5]). This compound showed an Oligomer content in data set [2] (setting [5]) of 0.6 area-%. The “Anisidine Value (AV)” value in data set [3] (t = 0, before storage) was 2.1 A/g; in data set [3] (setting [5]), under 1.0 A/g.
